Reference: patent US20210386756A1, “IMPROVEMENTS FOR PERFORMING AND FACILITATING THE RECOVERY AFTER HEMATOPOIETIC STEM CELL TRANSPLANTATION” (Centro de Investigaciones Energéticas, Medioambientales y …, priority 2018, published 2021)

Experiments:
[1] = system: human cord-blood CD34+ cells; assay: Human hematopoietic engraftment in male NSG mice transplanted with 5×10^4 human cord-blood CD34+ cells; assay type: in vivo, mouse
Description: Three-four months later, the animals were sacrificed and the human hematopoietic engraftment was analyzed by FACS. Human hematopoietic population was identified as the cells positive for hCD45-APC-Cy7 (Biolegend) and negative for mouse CD45.1-PE (Biolegend). In order to further examine the effect of the estrogen in HSCT, hematopoietic progenitors (hCD34+) and hematopoietic stem cells (hCD34+/hCD38−) were analyzed by FACS inside of the human population in the treated NSG described in Example 1.

[2] = relative to other estrogens; cited from earlier work
human cord blood CD34+ = assay: Human engraftment in male NSG mice transplanted with a limited CD34+ cell dose (5×10^3); assay type: in vivo, mouse
Description: FIG. 6A indicates the level of human engraftment, which was raised by E4 administration. […] (Kruskal-Wallis test; P=0.1150, 7-10 mice per group). […] Three-four months later, the animals were sacrificed and the human hematopoietic engraftment was analyzed by FACS. Human hematopoietic population was identified as the cells positive for hCD45-APC-Cy7 (Biolegend) and negative for mouse CD45.1-PE (Biolegend). To determine whether estrogen can improve hematopoietic reconstitution of low number of hematopoietic progenitors, male NSG were irradiated and transplanted with low doses of human cord blood CD34+ (5×103 hCD34+). The human engraftment was analyzed as described in Example 1.

[3] = system: mouse MSCs (mCD140a+) and vascular endothelial cells (mCD144+); assay: Mouse BM niche analysis (MSCs and vascular endothelial cells) after transplant and estrogen treatment; assay type: in vivo; details: four months after transplant, versus vehicle-treated animals
Description: FIG. 12 refers to modulation of the hematopoietic niche by estrogens. […] FIG. 12B refers to the relative mouse vascular endothelial cells (mCD144+ or VE-Cadherin+) in the BM of the male mice transplanted with 5×10^4 hCB-CD34+ cells analyzed 4 months after transplantation. […] Data are presented by dots and box-plots that represent the interquartile range (p75, upper edge; p25, lower edge; p50, midline; p95, line above the box; and p5, line below the box). Significance was analyzed by Mann-Whitney U test and represented by **P<0.01.
To provide a further insight into the positive impact of estrogens on promoting human hematopoietic engraftment, we examined mesenchymal and vascular endotelial compartments of the mouse BM niche four months after being transplanted and treated with E2 (estradiol) or E4 (estetrol). The percentage of mouse MSCs (mCD140a+, also called Pdgfra+) and vascular endothelial cells (mCD144+, also called VE-Cadherin+) was analyzed in the non-hematopoietic compartment ([…]).

[4] = system: human hematopoietic progenitors (CB-CD34+); assay: LTC-IC human bone marrow-like co-culture (hMSC + hCD34+) and CFU assay; assay type: cell-based
Description: LTC-IC was established through the co-culture of human bone marrow Mesenchymal Stromal Cells (BM-MSC) and human progenitors (CB-CD34+) to research the positive effects of the estrogens in a human context, such as an in vitro human bone marrow model. LTC-ICs were treated with vehicle or 100 µM of E2 or E4 for a week. […] Cells were plated in methycellulose media with specific hematopoietic cytokines to evaluate the hematopoietic progenitor content. After 14 days, colony forming units (CFU) were counted. Data were normalized to control groups. […] 1×10^5 human mesenchymal stromal cells (hMSC) were seeded in a p6 well and irradiated with 30 Gy next day. The following day, 5×10^4 hCD34^+ were added to the hMSC in LTC-IC media: 75% α-MEM without Phenol Red (Life Technologies), 12.5% Hyclone FBS (GE Healthcare), HS (Life Technologies), β-mercaptoethanol (Life Technologies), 0.5% PS and 1×10^−6 M Hydrocortisone (Sigma-Aldrich). 100 μM of estrogens, dissolved in ethanol, was added to the co-culture for a week, and then the cells were collected and the amount of human hematopoietic progenitors were evaluated in semisolid media supplement with specific hematopoietic cytokines (H4535, StemCell Technologies) plus 8 U/ml hEPO. After fourteen days, colony-forming units (CFU) were evaluated and normalized to the control: […]

In the case of `C[C@]12CC[C@@H]3c4ccc(O)cc4CC[C@H]3[C@@H]1[C@@H](O)[C@@H](O)[C@@H]2O` [E4, estetrol], the “Percentage in the human hematopoietic population: hematopoietic stem cells” value ([1]; hCD34+/hCD38−, male NSG, 5×10^4 CD34+, 2 μg daily for four days, mean +/− SEM) is reported as 0.87 +/− 0.11 (n = 11) %, the “Percentage in the human hematopoietic population: hematopoietic progenitors” value ([1]; hCD34+, male NSG, 5×10^4 CD34+, 2 μg daily for four days, mean +/− SEM) is reported as 13.94 +/− 0.85 (n = 11) % and the “Percentage of human hematopoietic reconstitution” value ([1]; male NSG, 5×10^4 CD34+, 2 μg daily for four days, three-four months later, mean +/− SEM) is reported as 47.47 +/− 6.08 (n = 9) %. For the same compound, the “Percentage in the human hematopoietic population: Lymphoid” value ([1]; male NSG, 5×10^4 CD34+, 2 μg daily for four days, CD19+, mean +/− SEM) was 81.22 +/− 4.83 (n = 5) %, the “Percentage in the human hematopoietic population: Myeloid” value ([1]; male NSG, 5×10^4 CD34+, 2 μg daily for four days, CD33+, mean +/− SEM) was 8.24 +/− 1.65 (n = 5) % and the “human hematopoietic progenitors (hCD34+) and human HSC (hCD34+CD38−) in the human engraftment, significance” value ([1]; three months post-transplant, Kruskal-Wallis P<0.05) was “statistically significant differences compared to controls and E2 treated group”. For the same compound, the in vivo half-life [2] was “considerably longer than that of other estrogens”, the “proportion of engrafted mice (human engraftment above 0.1%)” value (human cord blood CD34+; 5×10^3 CB-CD34+) was 70% and the “change of the proportion of engrafted mice versus vehicle” value (human cord blood CD34+; limited HPC dose, engraftment above 0.1%) was “almost tripled”. The “Percentage of human hematopoietic reconstitution” value (human cord blood CD34+; low dose 5×103 hCD34+, mean +/− SEM) was 3.20 +/− 1.43 (n = 9) %, the “number of mCD140a+ cells (mouse MSCs) in BM” value [3] was “increased” and the “Normalized human CFU” value ([4]; 100 μM estrogen for a week, CFU after fourteen days, normalized to control, mean +/− SEM) was 1.98 +/− 0.23 (n = 6). The “total number of primitive hematopoietic progenitors in LTC-IC” value ([4]; 100 μM for a week, versus vehicle) was “almost doubled”.
